Values joined by “and” are separate entries in the source; they are usually repeats but may differ in a detail not shown here. Equal values may be shown once.
Legend:
P. yoelii sporozoites = assay: Inhibition of liver stage development assay (ILSDA), mouse hepatocytes infected with P. yoelii sporozoites; type: cell-based; settings: sera of immunized mice, mouse hepatocytes
Description: (§1) In certain experiments, peptides were emulsified in complete Freund's adjuvant (CFA) and injected subcutaneously (S.C.) at the base of the tail in 100 μl volume containing 100 μg of peptide. Mice were boosted with 100 μg of peptide emulsified in 100 μl of incomplete Freund's adjuvant (IFA) 1 month later. Mice were bled just prior to boosting, and 2 weeks after boosting.
All cell culture reagents were obtained from quality Biological, Gaithersburg, Md. The slides were incubated overnight at 37° C. in a 5% CO2/95% air environment. The medium was changed the following day and fresh medium containing dexamethasone (7×10^−5) was added to the cultures.
(§2) The 17XNL (nonlethal) strain of P. yoelii or the NF54 strain of P. falciparum were used for murine and human hepatocyte in vitro infections, respectively.
(§3) Briefly, 25 μl of the serum samples, diluted to 2× their final concentration, were added to triplicate chamber-slide wells. P. yoeilli or P. falciparum sporozoites, 75,000/well, were then added in a volume of 25 μl to the mouse or human hepatocyte cultures respectively. The cultures were incubated for 3 h, then washed extensively with fresh medium to remove unattached sporozoites. The infected hepatocytes were then incubated for a further 2 (P. yoelii) or 5 days (P. falciparum) with the medium being changed each day of culture. The slides were fixed and immunostained with either a P. yoelii- or P. falciparum-specific monoclonal antibody. Schizonts were counted from the triplicate cultures and the percent inhibition determined as follows: control−test/control×100. Sera from mice injected with CFA (first dose) and IFA (second and third doses) served as the negative controls.

[1] = system: P. falciparum sporozoites; assay: Inhibition of liver stage development assay (ILSDA), human hepatocytes infected with P. falciparum sporozoites; type: cell-based; settings: sera of C57BL/6 mice immunized with peptide in CFA/IFA, final dilution 1:100
Description: as §1
Human hepatocytes were isolated from nontransplantable liver tissue donated for research. […] The hepatocytes were allowed to attach and spread overnight with the media being changed the following day.
as §2, §3

IAk = IAk (Mus musculus, UniProt P01910+P06343); assay: biochemical
[2] = system: P. yoelii 17XNL sporozoites; settings: in vivo
[3] = system: air-dried P. yoelii sporozoites; settings: in vivo
DQ3.1 = system: DQ3.1; parameters: species or system human; settings: read-out: Binding Activity DQ3.1, IC50
DR2w2b = system: DR2w2b; parameters: species or system human; settings: read-out: Binding Activity DR2wB2, IC50
DRw53 = DRw53 (Homo sapiens, UniProt P01903+P13762); assay: biochemical; type: binding
[4] = system: PBMC from normal individuals; assay: In vitro T cell proliferative responses of human PBMC ([3H]thymidine incorporation); type: cell-based; settings: for AVERAGE S.I. / AVERAGE ΔMAX CPM: average of 5 donors; for X144 (Δmax cpm) / X144 S.I.: donor X144; for X162 (Δmax cpm) / X162 S.I.: donor X162; for X349 (Δmax cpm) / X349 S.I.: donor X349; for X372 (Δmax cpm) / X372 S.I.: donor X372; for X460 (Δmax cpm) / X460 S.I.: donor X460
DR3 = system: DR3; parameters: species or system human; settings: read-out: Binding Activity DR3, IC50
DR5 = system: DR5; parameters: species or system human; settings: read-out: Binding Activity DR5, IC50
DR4w4 = DR4w4 (Homo sapiens, UniProt P01903+P01911, A100K/A169T/F76Y/I96L/K127E/L162R/M171V/N62H/P40V/Q125Y/R42H/S133A/S149N/S66Y/V115G/V209L/W38E); assay: biochemical; type: binding
DR1 = DR1 (Homo sapiens, UniProt P01903+P01911, A100R/D57E/F55L/F60I/F76Y/I96L/L162R/M171V/P40L/Q125E/R42F/V115G/Y59C); assay: biochemical; type: binding

Molecule	% Inhibition (P. yoelii sporozoites; dilution 1:100) [%]	Mean schizonts/well + S.D. (P. yoelii sporozoites; dilution 1:100)	% Inhibition (P. yoelii sporozoites; dilution 1:200) [%]	Mean schizonts/well + S.D. (P. yoelii sporozoites; dilution 1:200)	Mean schizonts/well ± S.D. [1] [schizonts/well]	IC50 (DQ3.1) [nM]	IC50 (DR2w2b) [nM]	AVERAGE S.I. ([4]; 2nd Stimulation)	AVERAGE ΔMAX CPM ([4]; 2nd Stimulation) [cpm]	X144 (Δmax cpm) ([4]; 2nd Stimulation) [cpm]	X144 S.I. ([4]; 2nd Stimulation)	X162 (Δmax cpm) ([4]; 2nd Stimulation) [cpm]	X162 S.I. ([4]; 2nd Stimulation)	X349 (Δmax cpm) ([4]; 2nd Stimulation) [cpm]	X349 S.I. ([4]; 2nd Stimulation)	X372 (Δmax cpm) ([4]; 2nd Stimulation) [cpm]	X372 S.I. ([4]; 2nd Stimulation)	X460 (Δmax cpm) ([4]; 2nd Stimulation) [cpm]	X460 S.I. ([4]; 2nd Stimulation)	AVERAGE S.I. ([4]; 3rd Stimulation)	also measured
(NANP)4 [PfB]	13.4	71 ± 7 schizonts/well	6.2	76 ± 7 schizonts/well	15.6 ± 8.7	–	–	–	–	–	–	–	–	–	–	–	–	–	–	–	% Inhibition [1]: 80% and 79.7%
CC[C@H](C)[C@H](NC(=O)CNC(=O)[C@H](Cc1ccc(O)cc1)NC(=O)[C@H](CC(=O)O)NC(=O)[C@@H](NC(=O)[C@H](CO)NC(=O)CNC(=O)[C@H](CC(=O)O)NC(=O)[C@@H](NC(=O)[C@H](CC(N)=O)NC(=O)[C@@H](N)Cc1ccc(O)cc1)[C@@H](C)O)[C@@H](C)O)C(=O)N[C@@H](CC(C)C)C(=O)N[C@@H](CCC(N)=O)C(=O)N[C@H](C(=O)N[C@@H](CC(N)=O)C(=O)N[C@@H](CO)C(=O)N[C@@H](CCCNC(=N)N)C(=O)O)[C@@H](C)CC [HEL 46-61]	–	–	–	–	–	–	–	–	–	–	–	–	–	–	–	–	–	–	–	–	IC50 (IAk): 20 nM
G(QGPGAP)4 [PyB]	50	41 + 3.8 schizonts/well	43.2	46 + 4 schizonts/well	70 ± 14	–	–	–	–	–	–	–	–	–	–	–	–	–	–	–	% Protected [2]: 12.5%; Infected/challenged [2]: 7/8; levels of antibodies against sporozoites and the PyCSP (immunogenicity, in words) [3]: poorly immunogenic
CC(C)C[C@H](NC(=O)[C@@H](NC(=O)[C@H](CCCCN)NC(=O)[C@H](C)NC(=O)[C@H](C)NC(=O)[C@@H](NC(=O)[C@H](CC1CCCCC1)NC(=O)[C@H](CCCCN)NC(=O)[C@@H](C)N)C(C)C)[C@@H](C)O)C(=O)N[C@@H](CCCCN)C(=O)N[C@@H](C)C(=O)N[C@@H](C)C(=O)N[C@H](C)C(N)=O [965.14]	–	–	–	–	–	> 10000	8	1.5	5523	3570	1.1	4655	2.1	4421	1.3	10608	1.4	4365	1.4	2	IC50 (DRw53): 52.8 nM; AVERAGE ΔMAX CPM ([4]; 3rd Stimulation): 10583 cpm; X144 (Δmax cpm) ([4]; 3rd Stimulation): 4319 cpm; X144 S.I. ([4]; 3rd Stimulation): 2.3; X162 (Δmax cpm) ([4]; 3rd Stimulation): 10734 cpm; X162 S.I. ([4]; 3rd Stimulation): 1.7; X349 (Δmax cpm) ([4]; 3rd Stimulation): 17849 cpm; X349 S.I. ([4]; 3rd Stimulation): 2; X372 (Δmax cpm) ([4]; 3rd Stimulation): 19140 cpm; X372 S.I. ([4]; 3rd Stimulation): 2.1; X460 (Δmax cpm) ([4]; 3rd Stimulation): 874 cpm; X460 S.I. ([4]; 3rd Stimulation): 2; IC50 (DR3): 781 nM; IC50 (DR5): 3.4 nM; IC50 (DR4w4): 7.4 nM
CC(C)C[C@H](NC(=O)[C@@H](NC(=O)[C@H](Cc1c[nH]c2ccccc12)NC(=O)[C@H](C)NC(=O)[C@H](C)NC(=O)[C@@H](NC(=O)[C@H](CC1CCCCC1)NC(=O)[C@H](CCCCN)NC(=O)[C@@H](C)N)C(C)C)[C@@H](C)O)C(=O)N[C@@H](CCCCN)C(=O)N[C@@H](C)C(=O)N[C@@H](C)C(=O)N[C@H](C)C(N)=O [965.10]	–	–	–	–	–	25	5.6	3.9	25767	11663	1.8	20693	7.9	22133	3.5	44414	3.2	29933	3.3	11.5	AVERAGE ΔMAX CPM ([4]; 3rd Stimulation): 31002 cpm; X144 (Δmax cpm) ([4]; 3rd Stimulation): 33159 cpm; X144 S.I. ([4]; 3rd Stimulation): 14; X162 (Δmax cpm) ([4]; 3rd Stimulation): 34548 cpm; X162 S.I. ([4]; 3rd Stimulation): 11; X349 (Δmax cpm) ([4]; 3rd Stimulation): 38931 cpm; X349 S.I. ([4]; 3rd Stimulation): 3.5; X372 (Δmax cpm) ([4]; 3rd Stimulation): 36995 cpm; X372 S.I. ([4]; 3rd Stimulation): 15; X460 (Δmax cpm) ([4]; 3rd Stimulation): 11376 cpm; X460 S.I. ([4]; 3rd Stimulation): 15; IC50 (DR1): 1.2 nM; IC50 (DR5): 11.1 nM; IC50 (DR4w4): 2.8 nM

Reference: patent US20050049197A1, “Induction of immune response against desired determinants” (Epimmune Inc., priority 1993, published 2005)
